Measurements: ChEMBL document CHEMBL1201862, “PubChem BioAssay data set” (2004)
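Grown in 96-well plates, cells were treated for 48 hours with each compound at five concentrations. Insufficient inhibition: endpoint recorded as highest concentration tested. GI50 = concentration required for 50% inhibition of growth.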 The source made the active and inactive calls. Rule as the data show it: active = GI50 up to about 1.1 µM and inactive = higher.

Key:
Assay in all cases: DTP human tumour cell line panel, 48 h
786-0 = system: 786-0
A549 = system: A549
ACHN = system: ACHN
CAKI-1 = system: CAKI-1
CCRF-CEM = system: CCRF-CEM
COLO 205 = system: COLO 205
DLD-1 = system: DLD-1
DMS-114 = system: DMS-114
DMS-273 = system: DMS-273
EKVX = system: EKVX
HCC 2998 = system: HCC 2998
HCT-15 = system: HCT-15
HL-60 = system: HL-60
HOP-18 = system: HOP-18
HOP-62 = system: HOP-62
HOP-92 = system: HOP-92
HT-29 = system: HT-29
IGROV-1 = system: IGROV-1
K562 = system: K562
KM-20L2 = system: KM-20L2
KM12 = system: KM12
LOX IMVI = system: LOX IMVI
LXFL 529 = system: LXFL 529
M14 = system: M14
M19-MEL = system: M19-MEL
MOLT-4 = system: MOLT-4
Malme-3M = system: Malme-3M
NCI-H23 = system: NCI-H23
NCI-H460 = system: NCI-H460
NCI-H522 = system: NCI-H522
OVCAR-3 = system: OVCAR-3
OVCAR-4 = system: OVCAR-4
OVCAR-5 = system: OVCAR-5
OVCAR-8 = system: OVCAR-8
RPMI-8226 = system: RPMI-8226
RXF 393 = system: RXF 393
RXF 631 = system: RXF 631
SF-268 = system: SF-268
SF-295 = system: SF-295
SF-539 = system: SF-539
SK-MEL-28 = system: SK-MEL-28
SK-MEL-2 = system: SK-MEL-2
SK-MEL-5 = system: SK-MEL-5
SK-OV-3 = system: SK-OV-3
SN12C = system: SN12C
SNB-75 = system: SNB-75
SW-620 = system: SW-620
TK-10 = system: TK-10
U-251 = system: U-251
UACC-257 = system: UACC-257
UACC-62 = system: UACC-62
UO-31 = system: UO-31

What does the source list for `COC(=O)C1=C(C(=O)OC)C2C=CC1C1C(Cl)=C(Cl)C21` (configuration not stated)?
GI50 (786-0): > 100 µM (inactive); GI50 (A549): > 100 µM (inactive); GI50 (ACHN): > 100 µM (inactive); GI50 (CAKI-1): > 100 µM (inactive); GI50 (CCRF-CEM): > 100 µM (inactive); GI50 (COLO 205): > 100 µM (inactive); GI50 (DLD-1): > 100 µM (inactive); GI50 (DMS-114): > 100 µM (inactive); GI50 (DMS-273): > 100 µM (inactive); GI50 (EKVX): > 100 µM (inactive); GI50 (HCC 2998): > 100 µM (inactive); GI50 (HCT-15): > 100 µM; GI50 (HL-60): > 10 µM (inactive); GI50 (HOP-18): > 100 µM (inactive); GI50 (HOP-62): > 100 µM (inactive); GI50 (HOP-92): 40.1 µM (inactive); GI50 (HT-29): > 100 µM (inactive); GI50 (IGROV-1): > 100 µM (inactive); GI50 (K562): > 100 µM (inactive); GI50 (KM-20L2): > 100 µM (inactive); GI50 (KM12): > 100 µM (inactive); GI50 (LOX IMVI): > 100 µM (inactive); GI50 (LXFL 529): > 100 µM (inactive); GI50 (M14): > 100 µM (inactive); GI50 (M19-MEL): > 100 µM (inactive); GI50 (MOLT-4): > 100 µM (inactive); GI50 (Malme-3M): > 100 µM (inactive); GI50 (NCI-H23): > 100 µM (inactive); GI50 (NCI-H460): > 100 µM (inactive); GI50 (NCI-H522): > 100 µM (inactive); GI50 (OVCAR-3): > 100 µM (inactive); GI50 (OVCAR-4): > 100 µM (inactive); GI50 (OVCAR-5): > 100 µM (inactive); GI50 (OVCAR-8): > 100 µM (inactive); GI50 (RPMI-8226): > 100 µM (inactive); GI50 (RXF 393): > 100 µM (inactive); GI50 (RXF 631): > 100 µM (inactive); GI50 (SF-268): > 100 µM (inactive); GI50 (SF-295): > 100 µM (inactive); GI50 (SF-539): > 100 µM (inactive); GI50 (SK-MEL-28): > 100 µM (inactive); GI50 (SK-MEL-2): > 100 µM (inactive); GI50 (SK-MEL-5): 88.7 µM (inactive); GI50 (SK-OV-3): > 100 µM (inactive); GI50 (SN12C): > 100 µM (inactive); GI50 (SNB-75): > 100 µM (inactive); GI50 (SW-620): > 100 µM (inactive); GI50 (TK-10): > 100 µM (inactive); GI50 (U-251): > 100 µM (inactive); GI50 (UACC-257): > 100 µM (inactive); GI50 (UACC-62): > 100 µM (inactive); GI50 (UO-31): > 100 µM (inactive)
